# According to article PMC9238736 (Journal of the American Heart Association: Cardiovascular …, 2022):
# Experiments:
# [1] = target: T1, hKir2.1 (Homo sapiens, UniProt P63252); assay: whole-cell patch clamp, hyperpolarizing ramp, […] °C
# T1 sequence (P63252 1-427): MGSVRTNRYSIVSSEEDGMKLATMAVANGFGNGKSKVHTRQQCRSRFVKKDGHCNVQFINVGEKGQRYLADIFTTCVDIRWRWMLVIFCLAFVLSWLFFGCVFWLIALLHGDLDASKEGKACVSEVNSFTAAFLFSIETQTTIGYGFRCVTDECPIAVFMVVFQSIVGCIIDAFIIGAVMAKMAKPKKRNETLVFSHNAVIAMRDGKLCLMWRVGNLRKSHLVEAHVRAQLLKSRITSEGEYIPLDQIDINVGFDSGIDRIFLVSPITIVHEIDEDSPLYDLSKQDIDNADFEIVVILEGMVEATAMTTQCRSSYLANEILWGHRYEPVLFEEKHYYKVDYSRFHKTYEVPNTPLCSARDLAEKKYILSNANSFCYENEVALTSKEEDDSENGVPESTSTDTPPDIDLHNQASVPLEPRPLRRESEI
# [2] = target: human ether‐à‐go‐go–related gene (hERG) channel (Homo sapiens, UniProt Q12809)
# [3] = target: T2, hKir2.2 (Homo sapiens, UniProt Q14500); assay: whole-cell patch clamp, hyperpolarizing ramp; format: cell-based
# T2 sequence (Q14500 1-433): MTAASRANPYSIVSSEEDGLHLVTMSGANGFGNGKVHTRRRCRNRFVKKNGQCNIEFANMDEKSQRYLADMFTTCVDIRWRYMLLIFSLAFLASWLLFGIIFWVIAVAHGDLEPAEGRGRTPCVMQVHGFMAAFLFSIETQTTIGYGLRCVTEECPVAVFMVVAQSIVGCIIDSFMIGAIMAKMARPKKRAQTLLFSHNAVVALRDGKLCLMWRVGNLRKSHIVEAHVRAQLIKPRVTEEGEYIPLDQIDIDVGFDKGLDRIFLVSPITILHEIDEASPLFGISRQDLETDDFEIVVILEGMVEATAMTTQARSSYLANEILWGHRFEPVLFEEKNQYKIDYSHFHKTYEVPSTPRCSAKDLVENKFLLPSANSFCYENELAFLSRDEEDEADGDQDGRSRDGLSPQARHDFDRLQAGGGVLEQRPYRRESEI
# human ether‐à‐go‐go–related gene (hERG) channel, sequence (Q12809 whole entry): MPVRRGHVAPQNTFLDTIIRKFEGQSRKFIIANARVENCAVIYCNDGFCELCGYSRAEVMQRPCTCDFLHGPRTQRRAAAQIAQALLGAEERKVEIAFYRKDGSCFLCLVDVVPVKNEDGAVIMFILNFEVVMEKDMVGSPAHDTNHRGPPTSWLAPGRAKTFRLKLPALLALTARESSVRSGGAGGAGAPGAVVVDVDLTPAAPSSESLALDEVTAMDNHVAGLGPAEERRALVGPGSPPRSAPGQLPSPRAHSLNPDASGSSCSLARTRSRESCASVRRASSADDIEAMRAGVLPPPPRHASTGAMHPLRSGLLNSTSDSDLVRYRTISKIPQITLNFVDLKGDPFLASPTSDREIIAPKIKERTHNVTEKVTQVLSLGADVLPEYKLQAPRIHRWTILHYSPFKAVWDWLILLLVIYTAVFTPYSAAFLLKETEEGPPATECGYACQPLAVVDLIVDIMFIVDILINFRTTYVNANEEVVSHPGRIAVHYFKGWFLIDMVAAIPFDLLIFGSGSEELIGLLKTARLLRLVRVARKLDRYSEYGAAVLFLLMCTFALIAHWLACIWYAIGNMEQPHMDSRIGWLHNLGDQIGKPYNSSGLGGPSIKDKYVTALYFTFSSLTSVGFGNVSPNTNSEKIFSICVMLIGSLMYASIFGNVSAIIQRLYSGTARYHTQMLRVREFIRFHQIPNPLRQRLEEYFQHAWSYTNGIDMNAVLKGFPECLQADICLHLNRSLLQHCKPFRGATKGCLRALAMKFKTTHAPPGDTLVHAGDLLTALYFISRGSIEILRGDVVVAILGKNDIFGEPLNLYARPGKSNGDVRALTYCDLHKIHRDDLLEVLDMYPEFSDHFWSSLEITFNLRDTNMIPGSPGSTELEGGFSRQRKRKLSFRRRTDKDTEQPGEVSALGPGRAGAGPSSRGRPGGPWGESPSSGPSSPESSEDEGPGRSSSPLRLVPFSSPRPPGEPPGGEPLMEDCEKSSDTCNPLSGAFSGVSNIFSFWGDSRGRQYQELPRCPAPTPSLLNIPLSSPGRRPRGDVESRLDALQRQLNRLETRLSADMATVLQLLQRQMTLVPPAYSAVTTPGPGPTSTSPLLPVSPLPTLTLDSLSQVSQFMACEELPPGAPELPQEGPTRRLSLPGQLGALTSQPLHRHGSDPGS
Compound,IC50 [1] [µM],IC50 [2] [µM],IC50 [3] [µM]
CCC(=O)C(CC(C)N(C)C)(c1ccccc1)c1ccccc1 (racemic) [methadone],2.9,2.9,
CN(C)C(=O)C(CCN1CCC(O)(c2ccc(Cl)cc2)CC1)(c1ccccc1)c1ccccc1 [loperamide],,,1.2
